According to patent publication US20040191926A1 (priority 2001, published 2004):

Legend:
PTP1B = target: T1, PTP1B (Homo sapiens, UniProt P18031); test: PTPase activity assay with pNPP substrate; type: biochemical
T1 construct: PTP1B (residues 1-321) (22); made in house; host or cells: E. coli
T1 sequence (P18031 1-321): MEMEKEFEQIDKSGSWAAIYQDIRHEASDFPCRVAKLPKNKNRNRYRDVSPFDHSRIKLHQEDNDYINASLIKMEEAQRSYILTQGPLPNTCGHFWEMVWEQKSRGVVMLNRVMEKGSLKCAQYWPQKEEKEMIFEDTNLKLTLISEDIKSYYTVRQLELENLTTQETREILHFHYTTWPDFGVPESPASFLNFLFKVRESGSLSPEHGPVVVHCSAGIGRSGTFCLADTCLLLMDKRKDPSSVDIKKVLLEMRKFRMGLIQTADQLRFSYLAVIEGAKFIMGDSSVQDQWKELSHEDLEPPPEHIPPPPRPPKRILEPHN

Yersinia PTP = target: T2, Yersinia PTP (Yersinia enterocolitica, UniProt P15273); test: biochemical
T2 construct: made in house; host or cells: E. coli

HePTP = target: T3, HePTP (Homo sapiens, UniProt P35236); test: Phosphatase panel, pNPP assay; type: biochemical; details: at 10 μM
T3 construct: (His)6; made in house
T3 sequence (P35236 1-360): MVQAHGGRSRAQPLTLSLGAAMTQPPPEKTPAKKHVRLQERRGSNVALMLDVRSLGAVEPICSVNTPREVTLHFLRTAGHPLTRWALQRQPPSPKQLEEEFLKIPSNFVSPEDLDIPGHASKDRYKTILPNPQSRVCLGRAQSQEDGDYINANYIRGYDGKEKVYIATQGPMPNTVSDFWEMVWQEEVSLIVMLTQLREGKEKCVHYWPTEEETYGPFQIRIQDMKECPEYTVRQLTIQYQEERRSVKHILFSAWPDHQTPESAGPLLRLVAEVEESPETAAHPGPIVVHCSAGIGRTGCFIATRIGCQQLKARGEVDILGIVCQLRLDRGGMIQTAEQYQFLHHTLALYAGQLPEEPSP

PTPα = target: T4, PTPα (Homo sapiens, UniProt P18433); test: Phosphatase panel, pNPP assay; type: biochemical; details: at 10 μM
T4 construct: The intracellular fragment of PTPa, LAR and CD45 containing both of the PTPase domains was cleaved off the fusion protein; GST (cleaved yes); made in house

VHR = target: T5, VHR (Homo sapiens, UniProt P51452); test: Phosphatase panel, pNPP assay; type: biochemical; details: at 10 μM
T5 construct: made in house; host or cells: E. coli

MKP3 = test: Phosphatase panel, pNPP assay; type: biochemical; details: at 10 μM
Cdc25A = target: T6, Cdc25A (Homo sapiens, UniProt P30304); test: Phosphatase panel, pNPP assay; type: biochemical; details: at 10 μM
T6 sequence (P30304 1-524): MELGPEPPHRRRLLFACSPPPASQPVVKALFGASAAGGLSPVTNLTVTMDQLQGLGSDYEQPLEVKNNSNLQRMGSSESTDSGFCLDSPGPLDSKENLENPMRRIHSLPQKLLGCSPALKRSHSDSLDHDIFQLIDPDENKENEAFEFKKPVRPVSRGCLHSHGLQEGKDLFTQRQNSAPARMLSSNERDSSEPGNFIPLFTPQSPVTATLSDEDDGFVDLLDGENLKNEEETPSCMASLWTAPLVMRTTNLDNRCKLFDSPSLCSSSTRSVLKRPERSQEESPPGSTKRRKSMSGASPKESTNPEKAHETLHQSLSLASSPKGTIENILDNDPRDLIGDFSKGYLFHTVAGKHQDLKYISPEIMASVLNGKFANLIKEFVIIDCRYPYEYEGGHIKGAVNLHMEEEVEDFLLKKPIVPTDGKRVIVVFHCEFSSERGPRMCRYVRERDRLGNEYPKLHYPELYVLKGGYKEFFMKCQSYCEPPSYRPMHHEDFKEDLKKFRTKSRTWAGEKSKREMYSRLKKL

Stp1 = target: T7, Stp1 (Schizosaccharomyces pombe, UniProt P41893); test: Phosphatase panel, pNPP assay; type: biochemical; details: at 10 μM
T7 construct: made in house; host or cells: E. coli
T7 sequence (P41893 1-156): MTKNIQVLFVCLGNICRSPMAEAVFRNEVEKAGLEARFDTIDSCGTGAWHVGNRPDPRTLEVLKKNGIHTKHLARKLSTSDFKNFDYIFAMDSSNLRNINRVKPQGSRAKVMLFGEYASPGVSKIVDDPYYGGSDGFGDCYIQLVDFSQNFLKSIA

T5 sequence (P51452 whole entry, species assumed): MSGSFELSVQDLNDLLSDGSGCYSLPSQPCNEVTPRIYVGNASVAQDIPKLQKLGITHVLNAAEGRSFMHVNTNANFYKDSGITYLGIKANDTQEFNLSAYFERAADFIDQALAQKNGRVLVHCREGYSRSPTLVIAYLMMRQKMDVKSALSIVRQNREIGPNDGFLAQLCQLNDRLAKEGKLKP
T2 sequence (P15273 whole entry): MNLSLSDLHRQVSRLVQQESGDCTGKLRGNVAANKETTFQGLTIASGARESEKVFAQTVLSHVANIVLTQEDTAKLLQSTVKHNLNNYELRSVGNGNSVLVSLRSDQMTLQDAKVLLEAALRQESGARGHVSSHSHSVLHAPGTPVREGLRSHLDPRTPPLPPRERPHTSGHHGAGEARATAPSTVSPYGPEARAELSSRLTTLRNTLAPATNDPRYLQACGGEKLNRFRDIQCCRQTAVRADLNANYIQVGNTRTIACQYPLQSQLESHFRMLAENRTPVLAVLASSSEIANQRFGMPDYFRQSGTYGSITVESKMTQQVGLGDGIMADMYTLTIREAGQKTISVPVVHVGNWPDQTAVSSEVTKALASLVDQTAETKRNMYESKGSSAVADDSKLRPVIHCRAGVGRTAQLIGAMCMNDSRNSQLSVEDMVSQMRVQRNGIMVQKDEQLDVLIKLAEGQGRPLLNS

NC(=O)C(Cc1ccc(C(F)(F)P(=O)(O)O)cc1)NC(=O)C(CC(=O)O)NC(=O)Cc1ccc(C(F)(F)P(=O)(O)O)cc1 (stereo not drawn) [Compound 40]
preference for PTP1B versus nearly all phosphatases examined (PTP1B; panel of Table 2): greater than three orders of magnitude | mode of inhibition (PTP1B; with respect to the substrate pNPP): competitive | IC50 (Yersinia PTP): 1600 nM | Inhibition Potency (HePTP): No inhibition at 10 μM | Inhibition Potency (PTPα): No inhibition at 10 μM | Inhibition Potency (VHR): No inhibition at 10 μM | Inhibition Potency (MKP3): No inhibition at 10 μM | Inhibition Potency (Cdc25A): No inhibition at 10 μM | Inhibition Potency (Stp1): No inhibition at 10 μM
